Patent US10946074B2, “GLP-1 derivatives and uses thereof” (Novo Nordisk A/S, priority 2016, dated 2021)
Starred links: 1 amine or outer side, 2 acyl side, 3 side chain; linkers in the order of their positions; H or OH if unused. Residues, ends and D or L forms follow the SMILES beside them. Groups on a side chain read outwards from the residue. *: point of attachment. Undecanoyl(11-OPh(4-COOH)) = O=C(O)c1ccc(OCCCCCCCCCCC(=O)*)cc1; Decanoyl(10-O(3-COOH-Ph)) = O=C(O)c1cccc(OCCCCCCCCCC(=O)*)c1; γGlu = O=C(O)[C@H](CCC(=O)[*:2])N[*:1]; AEEA = NCCOCCOCC(=O)O

Target: T1, human GLP-1 receptor (Homo sapiens, UniProt P43220)
T1 construct: expressed in transfected cells; host or cells: membranes of BHK cells (parent BHKTS13), clone FCW467-12A
Assay: GLP-1 receptor binding, competitive binding assay with 125I-GLP-1 on isolated membranes (SPA)

[1] = GLP-1 receptor binding High HSA IC50 (nM), high HSA (2.0% (w/v) final assay concentration)
[2] = GLP-1 receptor binding Low HSA IC50 (nM), low HSA (max. 0.001% (w/v) final assay concentration)

T1 sequence (P43220 24-463): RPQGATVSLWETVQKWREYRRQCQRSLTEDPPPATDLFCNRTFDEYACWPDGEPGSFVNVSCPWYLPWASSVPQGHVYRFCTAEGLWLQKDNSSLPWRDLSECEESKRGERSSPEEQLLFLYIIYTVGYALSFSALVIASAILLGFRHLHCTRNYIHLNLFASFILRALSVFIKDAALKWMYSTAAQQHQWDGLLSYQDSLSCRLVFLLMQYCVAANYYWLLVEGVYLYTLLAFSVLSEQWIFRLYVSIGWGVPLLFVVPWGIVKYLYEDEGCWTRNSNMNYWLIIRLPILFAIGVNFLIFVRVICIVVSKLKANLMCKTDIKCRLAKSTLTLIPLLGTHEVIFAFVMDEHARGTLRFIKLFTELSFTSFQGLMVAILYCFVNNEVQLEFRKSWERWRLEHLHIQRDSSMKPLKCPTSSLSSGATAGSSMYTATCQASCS
Method: The receptor binding is reported as the concentration at which half of the labelled ligand is displaced from the receptor, the IC50 value.
Buffer 1 consisted of 20 mM Na-HEPES plus 10 mM EDTA and pH was adjusted to 7.4. Buffer 2 consisted of 20 mM Na-HEPES plus 0.1 mM EDTA and pH was adjusted to 7.4. Assay buffer consisted of 50 mM HEPES supplemented with 5 mM EGTA, 5 mM MgCl2, 0.005% w/v Tween 20 and pH was adjusted to 7.4. An 8% albumin stock consisted of HSA dissolved at 8% (w/v) in assay buffer. An 0.02% albumin stock consisted of HSA dissolved at 0.02% (w/v) in assay buffer.
To make a membrane preparation the cells were grown to approximately 80% confluence. The cells were washed twice in phosphate-buffered saline and harvested. The cells were pelleted using a brief centrifugation and the cell pellet was kept on ice. The cell pellet was homogenised with ULTRA-THURRAX™ dispersing instrument for 20-30 seconds in a suitable amount of buffer 1 (e.g., 10 ml). The homogenate was centrifuged for 15 minutes. The pellet was re-suspended (homogenised) in 10 ml buffer 2 and centrifuged. This step was repeated once more. The resulting pellet was re-suspended in buffer 2 and the protein concentration was determined. The membranes were aliquoted and stored at minus 80° C.
For the receptor binding assay in the presence of low HSA (0.005% (w/v)) 50 μl of the assay buffer was added to each well of an assay plate. Assay continued with step 3.
For the receptor binding assay in the presence of high HSA (2% (w/v)) 50 μl of the 8% (w/v) albumin stock was added to each well of an assay plate. Assay continued with step 3.
Cell membrane aliquots were thawed and diluted to their working concentration. Fifty μl were added to each well in the assay plate.
WGA SPA beads were suspended in assay buffer at 20 mg/ml. The suspension was diluted to 10 mg/ml in assay buffer just prior to addition to the assay plate. Fifty μl were added to each well in the assay plate.
A 25 μl aliquot was reserved for measuring total counts/well.
The assay plate was incubated for 2 h at 30° C.
The assay plate was centrifuged for 10 min.
The assay plate was read in a Packard TopCount NXT instrument.
Individual replicates were analysed using non-linear regression in GraphPad Prism. IC50 values were calculated by the software and reported in nM. A minimum of two replicates was measured for each sample. The reported values are averages of all of the measured values for each compound.

| Compound | IC50 [1] | IC50 [2] |
| --- | --- | --- |
| CC[C@H](C)[C@H](NC(=O)[C@H](Cc1ccccc1)NC(=O)[C@H](CCC(=O)O)NC(=O)[C@H](CCCNC(=N)N)NC(=O)[C@H](C)NC(=O)[C@H](C)NC(=O)[C@H](CCC(N)=O)NC(=O)[C@H](CCC(=O)O)NC(=O)[C@H](CCC(=O)O)NC(=O)[C@H](CC(C)C)NC(=O)[C@H](Cc1ccc(O)cc1)NC(=O)[C@H](CO)NC(=O)[C@H](CO)NC(=O)[C@@H](NC(=O)[C@H](CC(=O)O)NC(=O)[C@H](CO)NC(=O)[C@@H](NC(=O)[C@H](Cc1ccccc1)NC(=O)[C@@H](NC(=O)CNC(=O)[C@H](CCC(=O)O)NC(=O)C(C)(C)NC(=O)[C@@H](N)Cc1c[nH]cn1)[C@@H](C)O)[C@@H](C)O)C(C)C)C(=O)N[C@@H](C)C(=O)N[C@@H](Cc1c[nH]c2ccccc12)C(=O)N[C@@H](CC(C)C)C(=O)N[C@H](C(=O)N[C@@H](CCCNC(=N)N)C(=O)NCC(=O)N[C@@H](CCCCNC(=O)COCCOCCNC(=O)COCCOCCNC(=O)CC[C@H](NC(=O)CCCCCCCCCCOc1ccc(C(=O)O)cc1)C(=O)O)C(=O)N[C@@H](CCCCNC(=O)COCCOCCNC(=O)COCCOCCNC(=O)CC[C@H](NC(=O)CCCCCCCCCCOc1ccc(C(=O)O)cc1)C(=O)O)C(=O)O)C(C)C [Comparative 8A] | 110 nM | 0.245 nM |
| CC[C@H](C)[C@H](NC(=O)[C@H](Cc1ccccc1)NC(=O)[C@H](CCC(=O)O)NC(=O)[C@H](CCCNC(=N)N)NC(=O)[C@H](C)NC(=O)[C@H](C)NC(=O)[C@H](CCC(N)=O)NC(=O)[C@H](CCC(=O)O)NC(=O)[C@H](CCC(=O)O)NC(=O)[C@H](CC(C)C)NC(=O)[C@H](Cc1ccc(O)cc1)NC(=O)[C@H](CO)NC(=O)[C@H](CO)NC(=O)[C@@H](NC(=O)[C@H](CC(=O)O)NC(=O)[C@H](CO)NC(=O)[C@@H](NC(=O)[C@H](Cc1ccccc1)NC(=O)[C@@H](NC(=O)CNC(=O)[C@H](CCC(=O)O)NC(=O)[C@H](Cc1c[nH]c2ccccc12)NC(=O)[C@@H](N)Cc1c[nH]cn1)[C@@H](C)O)[C@@H](C)O)C(C)C)C(=O)N[C@@H](C)C(=O)N[C@@H](Cc1c[nH]c2ccccc12)C(=O)N[C@@H](CC(C)C)C(=O)N[C@H](C(=O)N[C@@H](CCCNC(=N)N)C(=O)NCC(=O)N[C@@H](CCCCNC(=O)COCCOCCNC(=O)COCCOCCNC(=O)CC[C@H](NC(=O)CCCCCCCCCOc1cccc(C(=O)O)c1)C(=O)O)C(=O)N[C@@H](CCCCNC(=O)COCCOCCNC(=O)COCCOCCNC(=O)CC[C@H](NC(=O)CCCCCCCCCOc1cccc(C(=O)O)c1)C(=O)O)C(=O)O)C(C)C [Example 1, N{Epsilon-36}-[2-[2-[2-[[2-[2-[2-[[(4S)-4-carboxy-4-[10-(3-carboxyphenoxy)decanoylamino]butanoyl]amino]ethoxy]ethoxy]acetyl]amino]ethoxy]ethoxy]acetyl],N{Epsilon-37}-[2-[2-[2-[[2-[2-[2-[[(4S)-4-carboxy-4-[10-(3-carboxyphenoxy)decanoylamino]butanoyl]amino]ethoxy]ethoxy]acetyl]amino]ethoxy]ethoxy]acetyl]-[Trp8,Glu22,Arg26,Arg34,Lys36,Lys37]-GLP-1-(7-37)-peptide] (H-HWEGTFTSDVSSYLEEQAAREFIAWLVRGK([AEEA-AEEA-γGlu-Decanoyl(10-O(3-COOH-Ph))])K([AEEA-AEEA-γGlu-Decanoyl(10-O(3-COOH-Ph))])-OH) | 410 nM |  |
| CC[C@H](C)[C@H](NC(=O)[C@H](Cc1ccccc1)NC(=O)[C@H](CCC(=O)O)NC(=O)[C@H](CCCNC(=N)N)NC(=O)[C@H](C)NC(=O)[C@H](C)NC(=O)[C@H](CCC(N)=O)NC(=O)[C@H](CCC(=O)O)NC(=O)[C@H](CCC(=O)O)NC(=O)[C@H](CC(C)C)NC(=O)[C@H](Cc1ccc(O)cc1)NC(=O)[C@H](CO)NC(=O)[C@H](CO)NC(=O)[C@@H](NC(=O)[C@H](CC(=O)O)NC(=O)[C@H](CO)NC(=O)[C@@H](NC(=O)[C@H](Cc1ccccc1)NC(=O)[C@@H](NC(=O)CNC(=O)[C@H](CCC(=O)O)NC(=O)[C@H](Cc1c[nH]c2ccccc12)NC(=O)[C@@H](N)Cc1c[nH]cn1)[C@@H](C)O)[C@@H](C)O)C(C)C)C(=O)N[C@@H](C)C(=O)N[C@@H](Cc1c[nH]c2ccccc12)C(=O)N[C@@H](CC(C)C)C(=O)N[C@H](C(=O)N[C@@H](CCCNC(=N)N)C(=O)NCC(=O)N[C@@H](CCCCNC(=O)COCCOCCNC(=O)COCCOCCNC(=O)CC[C@H](NC(=O)CCCCCCCCCCOc1ccc(C(=O)O)cc1)C(=O)O)C(=O)N[C@@H](CCCCNC(=O)COCCOCCNC(=O)COCCOCCNC(=O)CC[C@H](NC(=O)CCCCCCCCCCOc1ccc(C(=O)O)cc1)C(=O)O)C(=O)O)C(C)C [Example 8, N{Epsilon-36}-[2-[2-[2-[[2-[2-[2-[[(4S)-4-carboxy-4-[11-(4-carboxyphenoxy)undecanoylamino]butanoyl]amino]ethoxy]ethoxy]acetyl]amino]ethoxy]ethoxy]acetyl],N{Epsilon-37}-[2-[2-[2-[[2-[2-[2-[[(4S)-4-carboxy-4-[11-(4-carboxyphenoxy)undecanoylamino]butanoyl]amino]ethoxy]ethoxy]acetyl]amino]ethoxy]ethoxy]acetyl]-[Trp8,Glu22,Arg26,Arg34,Lys36,Lys37]-GLP-1-(7-37)-peptide] (H-HWEGTFTSDVSSYLEEQAAREFIAWLVRGK([AEEA-AEEA-γGlu-Undecanoyl(11-OPh(4-COOH))])K([AEEA-AEEA-γGlu-Undecanoyl(11-OPh(4-COOH))])-OH; N-terminus and C-terminus assumed) | 170 nM |  |
| CC[C@H](C)[C@H](NC(=O)[C@H](Cc1ccccc1)NC(=O)[C@H](CCC(=O)O)NC(=O)[C@H](CCCNC(=N)N)NC(=O)[C@H](C)NC(=O)[C@H](C)NC(=O)[C@H](CCC(N)=O)NC(=O)[C@H](CCC(=O)O)NC(=O)[C@H](CCC(=O)O)NC(=O)[C@H](CC(C)C)NC(=O)[C@H](Cc1ccc(O)cc1)NC(=O)[C@H](CO)NC(=O)[C@H](CO)NC(=O)[C@@H](NC(=O)[C@H](CC(=O)O)NC(=O)[C@H](CO)NC(=O)[C@@H](NC(=O)[C@H](Cc1ccccc1)NC(=O)[C@@H](NC(=O)CNC(=O)[C@H](CCC(=O)O)NC(=O)[C@H](Cc1c[nH]c2ccccc12)NC(=O)[C@@H](N)Cc1c[nH]cn1)[C@@H](C)O)[C@@H](C)O)C(C)C)C(=O)N[C@@H](C)C(=O)N[C@@H](Cc1c[nH]c2ccccc12)C(=O)N[C@@H](CC(C)C)C(=O)N[C@H](C(=O)N[C@@H](CCCNC(=N)N)C(=O)NCC(=O)N[C@@H](CCCNC(=N)N)C(=O)N[C@@H](CCCCNC(=O)COCCOCCNC(=O)COCCOCCNC(=O)[C@H](CCCCNC(=O)COCCOCCNC(=O)COCCOCCNC(=O)COCCOCCNC(=O)COCCOCCNC(=O)CC[C@H](NC(=O)[C@H]1CC[C@H](CNC(=O)CCCCCCCCCCCCCCCCCCC(=O)O)CC1)C(=O)O)NC(=O)COCCOCCNC(=O)COCCOCCNC(=O)COCCOCCNC(=O)COCCOCCNC(=O)CC[C@H](NC(=O)[C@H]1CC[C@H](CNC(=O)CCCCCCCCCCCCCCCCCCC(=O)O)CC1)C(=O)O)C(=O)O)C(C)C [Example 12] |  | 3.16 nM |
| CC[C@H](C)[C@H](NC(=O)[C@H](Cc1ccccc1)NC(=O)[C@H](CCC(=O)O)NC(=O)[C@H](CCCNC(=N)N)NC(=O)[C@H](C)NC(=O)[C@H](C)NC(=O)[C@H](CCC(N)=O)NC(=O)[C@H](CCC(=O)O)NC(=O)[C@H](CCC(=O)O)NC(=O)[C@H](CC(C)C)NC(=O)[C@H](Cc1ccc(O)cc1)NC(=O)[C@H](CO)NC(=O)[C@H](CO)NC(=O)[C@@H](NC(=O)[C@H](CC(=O)O)NC(=O)[C@H](CO)NC(=O)[C@@H](NC(=O)[C@H](Cc1ccccc1)NC(=O)[C@@H](NC(=O)CNC(=O)[C@H](CCC(=O)O)NC(=O)[C@H](Cc1c[nH]c2ccccc12)NC(=O)[C@@H](N)Cc1c[nH]cn1)[C@@H](C)O)[C@@H](C)O)C(C)C)C(=O)N[C@@H](C)C(=O)N[C@@H](Cc1c[nH]c2ccccc12)C(=O)N[C@@H](CC(C)C)C(=O)N[C@H](C(=O)N[C@@H](CCCNC(=N)N)C(=O)NCC(=O)N[C@@H](CCCNC(=N)N)C(=O)N[C@@H](CCCCNC(=O)COCCOCCNC(=O)COCCOCCNC(=O)CN(CCCNC(=O)COCCOCCNC(=O)COCCOCCNC(=O)COCCOCCNC(=O)COCCOCCNC(=O)CC[C@H](NC(=O)[C@H]1CC[C@H](CNC(=O)CCCCCCCCCCCCCCCCCCC(=O)O)CC1)C(=O)O)CCCNC(=O)COCCOCCNC(=O)COCCOCCNC(=O)COCCOCCNC(=O)COCCOCCNC(=O)CC[C@H](NC(=O)[C@H]1CC[C@H](CNC(=O)CCCCCCCCCCCCCCCCCCC(=O)O)CC1)C(=O)O)C(=O)O)C(C)C [Example 13] |  | 0.818 nM |
